For one experiment, the target named is human LSD1 (Homo sapiens, UniProt O60341). Description: LSD1 inhibition, mass spectrometry. It is filed as biochemical.
Experiment [1] relates to normal fibroblast cells WI-38. The experiment is described as follows: Cell growth inhibition. The experiment is classed as cell-based.

In the case of `Cc1ccc(-c2ncc(OCC3CCNCC3)cc2-c2ccc(CN3CCCCC3)cc2)cc1` [Compound 36], the “LSD1 inhibition in words” value at human LSD1 is “almost inactive”.
Still for that read-out and setting: in the case of `Cc1ccc(-c2ncc(OCC3CCNCC3)cc2-c2ccc(CO)cc2)cc1` [Compound 30] it was “completely lose inhibitory activities”; in that of `c1ccc(-c2ccc(OCC3CCNCC3)cn2)cc1` [Compound 3], “inactive”; in that of `Cc1ccc(-c2ncc(O)cc2-c2ccc(C#N)cc2)cc1` [Compound 44], “Loss of activity”.
Turning to `C#Cc1ccc(-c2cc(OCC3CCNCC3)cnc2-c2ccc(C)cc2)cc1` [Compound 28], the “LSD1 inhibition in words” value on human LSD1 is recorded as “activity loss”. In addition, the “fold less active against LSD1 than compound 17” value on human LSD1 (Ki ratio to compound 17) was > 1,700 fold.
Regarding `Cc1ccc(-c2ncc(OCC3CCNCC3)cc2-c2ccc(C(=O)O)cc2)cc1` [Compound 29], the “LSD1 inhibition in words” value at human LSD1 was “completely lose inhibitory activities”.
Turning to `Cc1ccc(-c2ncc(OCc3ccccc3)cc2-c2ccc(C#N)cc2)cc1` [Compound 45], the “LSD1 inhibition in words” value on human LSD1 was “Loss of activity”.
For the compound `CN1CCN(C(=O)CN[C@H]2C[C@@H]2c2ccc(-c3ccc(F)nc3)cc2)CC1` [Compound S2], the “activity against growth of normal cells in words” value in experiment [1] is “inactive”.
Consider `c1ccc(-c2cc(OCC3CCNCC3)cnc2-c2ccccc2)cc1` [Compound 11], for which, at human LSD1, the “LSD1 inhibition in words” value was “inactive”.

(Values after PMC4878443 (Journal of medicinal chemistry, 2015).)
